From patent publication US20180071317A1, “USE OF AGENTS THAT ALTER THE PERITUMORAL ENVIRONMENT FOR THE TREATMENT OF CANCER” (SERVICIO ANDALUZ DE SALUD, priority 2011, published 2018)

How the values were obtained:
[1] = test system: fibroblasts (PHF) co-cultured with tumor cells of human gastric adenocarcinoma (23132/87); experiment: Marker expression (IHC) in PHF co-cultured with 23132/87 tumor cells; type: cell-based; conditions: co-culture with 23132/87; SP 1 μM + antagonist 1 μM; 48 h;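 also: cultures grown in fresh plasma from a healthy human donor, values give the percentage of PHF fibroblasts positive for the marker, each experiment run in six replicates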
Procedure: (§1) All cultures were maintained 48 hours, following which the same cells were included in paraffin blocks for subsequent analysis of the expression of different markers by immunohistochemistry (see Example 1). The primary antibodies used to perform immunohistochemical assays and their concentration are detailed in Example 2. All experiments were carried out sixfold. Analyzed markers in fibroblast cells (stromal cells) were: TGF-α, TGF-β1, TGF-β2, TGF-β3, SPARC, MMP-3, MMP-7, MMP-9, MMP-11, MMP-13 and MMP-14.

[2] = test system: fibroblasts (PHF) co-cultured with tumor cells of human colon adenocarcinoma (SW-403); experiment: Marker expression (IHC) in PHF co-cultured with SW-403 tumor cells; type: cell-based; conditions: co-culture with SW-403; SP 1 μM + antagonist 1 μM; 48 h
Procedure: as §1

[3] = test system: macrophages in co-culture with cells isolated from primary human tumors; experiment: Marker expression (IHC) in macrophages co-cultured with primary human tumor cells (colon, breast, ovarian, lung carcinoma, melanoma); type: cell-based; conditions: SP 1 μM + antagonist 1 μM;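 also: macrophages came from pleural or peritoneal washings of the patient who also supplied the tumor cells, and both were co-cultured on fresh blood plasma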
[4] = test system: fibroblasts of tumors produced by human glioma tumor line (GAMG); experiment: Marker expression (IHC) in fibroblasts of tumor or peritumoral area, mouse model, GAMG; type: in vivo; conditions: GAMG tumors in mice, 30 mg/kg/day oral, 7 days
Procedure: In vitro tests conducted in Example 5 are now carried out in an experimental model in mice in vivo. […] Subsequently, the expression in fibroblasts tumoral and peritumoral area of molecular markers associated with progression and maintenance of tumors: TGF-α, TGF-β1, TGF-β2, TGF-β3, MMP-7, MMP-11, MMP-14 were analyzed by immunohistochemistry.
Were injected with 2×10^7 cells tumors (corresponding, in each case to each of the tumor types as specified in Table 9) in 200 of PBS subcutaneously μl. […] Mice were randomized into two groups when the tumors reached a volume of 75 mm^3 One group was treated with non-peptide receptor antagonists NK1 and the other with placebo 200μ1. […] Tumors and samples of non-neoplastic stromal areas remote from the tumor were halved, formalin fixed (4%) and then were included in paraffin blocks for analysis by immunohistochemistry.
The expression on fibroblast cells obtained in the animal model was analyzed by immunohistochemistry, of the above markers: TGF-α, TGF-β1, TGF-β2, TGF-β3, MMP-7, MMP-1 1, MMP-14MP-14. Tables 32 to 35 depict the type of label used and the average percentage of fibroblasts present in non-tumor areas, tumor and peritumoral (±SD) which were expressing the marker shown in each of the tumor types developed from of the different cell lines used. This process was realized in mice treated with non-peptide antagonists of NK1 receptor and in untreated animals (control).

[5] = test system: leukocyte cells (mono and polymorphonuclear) in co-culture with cells isolated from primary human tumors; experiment: Marker expression (IHC) in leukocytes co-cultured with primary human tumor cells (colon, pancreatic, lung carcinoma, glioma, melanoma); type: cell-based; conditions: SP 1 μM + antagonist 1 μM;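 also: tumor cells and leukocytes came from the same patients, co-culture contents were paraffin-embedded for immunohistochemistry with antibodies to TGF-β2 or NF-kB, leukocytes cultured alone served as control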
Procedure: To check that the interaction of the human primary tumor cells with cells of the immune/inflammatory (mono and polymorphonuclear leukocytes) cells, stimulates the secretion of substances of importance for survival and tumor progression, cultures were carried out using sets of immune cells/inflammatory (mono and polymorphonuclear leukocytes) with tumor cells obtained directly from primary human tumors of the same patients.
The same method described in Example 7 and 9 was used to obtain tumor cells from primary human tumors. Similarly cultured immune cells/inflammatory (mono and polymorphonuclear leukocytes) were used as control and secondly, cultured tumor cells isolated from patients in the presence of immune cells/inflammatory (mono and polymorphonuclear leukocytes).
Then, paraffin blocks were prepared with the contents of each of the groups mentioned previously for expression studies using immunohistochemistry. On this occasion, in order to identify the secretion of substances with importance for the survival and progression of tumor the following markers were analyzed: TGF-β2 (SAB4502956) and NF-kB (SAB4501992) using specific antibodies against them. All antibodies used were rabbit polyclonal antibodies obtained from Sigma Aldrich and were used at a concentration of 1/1000. Immunohistochemical techniques were performed and evaluated as described in previous examples.

[6] = test system: fibroblasts of tumors produced by lung carcinoma non small cell human (HCC-44) cells; experiment: Marker expression (IHC) in fibroblasts of tumor or peritumoral area, mouse model, HCC-44; type: in vivo; conditions: HCC-44 tumors in mice, 30 mg/kg/day oral, 7 days
Procedure: The expression on fibroblast cells obtained in the animal model was analyzed by immunohistochemistry, of the above markers: TGF-α, TGF-β1, TGF-β2, TGF-β3, MMP-7, MMP-1 1, MMP-14MP-14. […] This process was realized in mice treated with non-peptide antagonists of NK1 receptor and in untreated animals (control).

[7] = test system: tumors from the tumor cell lines of Table 9; experiment: Mean tumor volume in nude mice injected subcutaneously with human tumor cells; conditions: 30 mg/kg/day oral, 7 days
[8] = co-culture with cells isolated from breast carcinoma
[9] = co-culture with cells isolated from colon carcinoma
[10] = co-culture with cells isolated from lung carcinoma
[11] = co-culture with cells isolated from melanoma
[12] = co-culture with cells isolated from ovarian carcinoma
[13] = co-culture with cells isolated from glioma
[14] = co-culture with cells isolated from pancreatic carcinoma

**Q.** Which results are given for `Cc1cc(F)ccc1[C@H]1CNCCN1C(=O)N(C)[C@H](C)c1cc(C(F)(F)F)cc(C(F)(F)F)c1` [Vestipitant]?
**A.** PHF cells expressing MMP-3 [1]: 0%; PHF cells expressing MMP-7 [1]: 0%; PHF cells expressing MMP-9 [1]: 0%; PHF cells expressing MMP-11 [1]: 0%; PHF cells expressing MMP-13 [1]: 0%; PHF cells expressing MMP-14 [1]: 0%; PHF cells expressing SPARC [1]: 0%; PHF cells expressing TGF-α [1]: 0%; PHF cells expressing TGF-β1 [1]: 0%; PHF cells expressing TGF-β2 [1]: 0%; PHF cells expressing TGF-β3 [1]: 0%; PHF cells expressing MMP-3 [2]: 0%; PHF cells expressing MMP-7 [2]: 0%; PHF cells expressing MMP-9 [2]: 0%; PHF cells expressing MMP-11 [2]: 0%; PHF cells expressing MMP-13 [2]: 0%; PHF cells expressing MMP-14 [2]: 0%; PHF cells expressing SPARC [2]: 0%; PHF cells expressing TGF-α [2]: 0%; PHF cells expressing TGF-β1 [2]: 0%; PHF cells expressing TGF-β2 [2]: 0%; PHF cells expressing TGF-β3 [2]: 0%; Percentage of macrophages which expressed EGF [3, 8]: 0%; Percentage of macrophages which expressed MMP-9 [3, 8]: 0%; Percentage of macrophages which expressed VEGF [3, 8]: 0%; Percentage of macrophages which expressed EGF [3, 9]: 0%; Percentage of macrophages which expressed MMP-9 [3, 9]: 0%; Percentage of macrophages which expressed VEGF [3, 9]: 0%; Percentage of macrophages which expressed EGF [3, 10]: 0%; Percentage of macrophages which expressed MMP-9 [3, 10]: 0%; Percentage of macrophages which expressed VEGF [3, 10]: 0%; Percentage of macrophages which expressed EGF [3, 11]: 0%; Percentage of macrophages which expressed MMP-9 [3, 11]: 0%; Percentage of macrophages which expressed VEGF [3, 11]: 0%; Percentage of macrophages which expressed EGF [3, 12]: 0%; Percentage of macrophages which expressed MMP-9 [3, 12]: 0%; Percentage of macrophages which expressed VEGF [3, 12]: 0%; fibroblasts expressing MMP-7 [4]: 0%; fibroblasts expressing MMP-11 [4]: 0%; fibroblasts expressing MMP-14 [4]: 0%; fibroblasts expressing TGF-α [4]: 0%; fibroblasts expressing TGF-β 1 [4]: 0%; fibroblasts expressing TGF-β 2 [4]: 0%; fibroblasts expressing TGF-β 3 [4]: 0%; Percentage of mononuclear leukocytes cells which expressed NF-kB [5, 9]: 0%; Percentage of mononuclear leukocytes cells which expressed TGF-β [5, 9]: 0%; Percentage of polymorphonuclear leukocytes cells which expressed NF-kB [5, 9]: 0%; Percentage of polymorphonuclear leukocytes cells which expressed TGF-β [5, 9]: 0%; Percentage of mononuclear leukocytes cells expressing NF-kB [5, 13]: 0%; Percentage of mononuclear leukocytes cells expressing TGF-β [5, 13]: 0%; Percentage of polymorphonuclear leukocytes cells expressing NF-kB [5, 13]: 0%; Percentage of polymorphonuclear leukocytes cells expressing TGF-β [5, 13]: 0%; Percentage of mononuclear leukocytes cells which expressed NF-kB [5, 10]: 0%; Percentage of mononuclear leukocytes cells which expressed TGF-β [5, 10]: 0%; Percentage of polymorphonuclear leukocytes cells which expressed NF-kB [5, 10]: 0%; Percentage of polymorphonuclear leukocytes cells which expressed TGF-β [5, 10]: 0%; Percentage of mononuclear leukocytes cells which expressed NF-kB [5, 11]: 0%; Percentage of mononuclear leukocytes cells which expressed TGF-β [5, 11]: 0%; Percentage of polymorphonuclear leukocytes cells which expressed NF-kB [5, 11]: 0%; Percentage of polymorphonuclear leukocytes cells which expressed TGF-β [5, 11]: 0%; Percentage of mononuclear leukocytes cells which expressed NF-kB [5, 14]: 0%; Percentage of mononuclear leukocytes cells which expressed TGF-β [5, 14]: 0%; Percentage of polymorphonuclear leukocytes cells which expressed NF-kB [5, 14]: 0%; Percentage of polymorphonuclear leukocytes cells which expressed TGF-β [5, 14]: 0%; fibroblasts expressing MMP-7 [6]: 0%; fibroblasts expressing MMP-11 [6]: 0%; fibroblasts expressing MMP-14 [6]: 0%; fibroblasts expressing TGF-α [6]: 0%; fibroblasts expressing TGF-β 1 [6]: 0%; fibroblasts expressing TGF-β 2 [6]: 0%; fibroblasts expressing TGF-β 3 [6]: 0%; Mean tumor volume ([7]; B lymphoblastic leukemia (peripheral human B lymphoblastoid cells) SD1): 112 ± 8; Mean tumor volume ([7]; Carcinoma of human non-small cell lung COR-L23): 111 ± 3; Mean tumor volume ([7]; Carcinoma of human non-small cell lung H-1963): 101 ± 6; Mean tumor volume ([7]; Carcinoma of human non-small cell lung HCC-44): 100 ± 4; Mean tumor volume ([7]; Carcinoma of human small cell lung H-209): 113 ± 5; Mean tumor volume ([7]; Carcinoma of human urinary bladder 5637): 112 ± 3; Mean tumor volume ([7]; Human B lymphoma BC-1): 101 ± 9; Mean tumor volume ([7]; Human Burkitt lymphoma CA-46): 100 ± 19; Mean tumor volume ([7]; Human Fibrosarcoma HT-1080): 112 ± 4; Mean tumor volume ([7]; Human Hodgkin lymphoma KM-H2): 99 ± 8; Mean tumor volume ([7]; Human Rhabdomyosarcoma A-204): 97 ± 9; Mean tumor volume ([7]; Human T-cell leukemia/NK YT): 101 ± 3; Mean tumor volume ([7]; Human T-lymphoma DERL human Hodgkin 7Linfoma KM-H2): 90 ± 9; Mean tumor volume ([7]; Human breast adenocarcinoma humano MCF-7): 78 ± 7; Mean tumor volume ([7]; Human breast carcinoma MDA-MB-468): 84 ± 7; Mean tumor volume ([7]; Human breast carcinoma MT-3): 78 ± 8; Mean tumor volume ([7]; Human choriocarcinoma AC-1M32): 88 ± 8; Mean tumor volume ([7]; Human colon carcinoma SW-403): 78 ± 2; Mean tumor volume ([7]; Human endometrial carcinoma AN3-CA): 89 ± 1; Mean tumor volume ([7]; Human endometrial stromal sarcoma ESS-1): 99 ± 3; Mean tumor volume ([7]; Human folicular thyroid carcinoma TT2609-C02): 100 ± 4; Mean tumor volume ([7]; Human gastric adenocarcinoma 23132/87): 63 ± 8; Mean tumor volume ([7]; Human glioma GAMG): 101 ± 4; Mean tumor volume ([7]; Human lung carcinoma A-427): 98 ± 10; Mean tumor volume ([7]; Human lung carcinoma DV-90): 136 ± 10; Mean tumor volume ([7]; Human lymphoblastic leukemia T BE-13): 111 ± 4; Mean tumor volume ([7]; Human malignant fibrous histiocytoma U-2197): 95 ± 8; Mean tumor volume ([7]; Human melanoma MEL HO): 102 ± 4; Mean tumor volume ([7]; Human multiple myeloma COLO-677): 101 ± 4; Mean tumor volume ([7]; Human neuroblastoma KELLY): 121 ± 4; Mean tumor volume ([7]; Human neuroblastoma bone marrow SKN-BE 2): 101 ± 7; Mean tumor volume ([7]; Human osteosarcoma CAL-72): 104 ± 9; Mean tumor volume ([7]; Human ovarian adenocarcinoma EFO-27): 63 ± 7; Mean tumor volume ([7]; Human ovarian carcinoma COLO-704): 78 ± 8; Mean tumor volume ([7]; Human pancretic adenocarcinoma CAPAN-1): 85 ± 8; Mean tumor volume ([7]; Human pancretic adenocarcinoma PA-TU 8902): 91 ± 6; Mean tumor volume ([7]; Human papillary thyroid carcinoma metastasizing B-CPAP): 102 ± 2; Mean tumor volume ([7]; Human prostate carcinoma 22RV1): 98 ± 2; Mean tumor volume ([7]; Human retinoblastoma WERI-Rb-1): 112 ± 8; Mean tumor volume ([7]; Human thyroid carcinoma 8505C): 98 ± 9; Mean tumor volume ([7]; Human uterine cervix carcinoma KB): 89 ± 1; Mean tumor volume ([7]; Melanoma humano, metástasis en ganglio linfático COLO 858): 110 ± 4; Mean tumor volume ([7]; Sarcoma human Edwing MHH-ES-1): 115 ± 3; Mean tumor volume ([7]; Transitional Carcinoma of human urinary bladder RT-4): 120 ± 3
